{"source": "patent US20050288310A1", "about": "“Methods of treating cellular proliferative disease using naphthalimide and PARP-1 inhibitors” (priority 2004, published 2005)", "key": {"Solubility": {"assay": "Solubility", "format": "physicochemical"}, "RIF-1 tumors": {"tested_on": "RIF-1 tumors", "assay": "Murine tumor growth delay model (RIF-1 tumors in C3H mice)", "settings": "same doses, IP; for Median (days to 4×): median tumor volume quadrupling time; for T/C (tumor growth delay ratio): ratio of 4× growth times of treated and untreated control tumors; for Delay (tumor growth delay): versus untreated control", "method": "C3H mice were inoculated subcutaneously in the flank with 2×10^5 radiation-induced fibrosarcoma cells (RIF-1) to produce experimental tumors. When tumors reached ˜100 mm^3, test compounds (100 uL) were administered intraperitoneally (IP).\nSingle compound groups received either amonafide (60 mg/kg), caffeine (75 mg/kg), or nicotinamide (1000 mg/kg).\nCombination groups received amonafide (60 mg/kg), in combination with either caffeine (75 mg/kg), or nicotinamide (1000 mg/kg).\nAll compounds were administered at the same concentration as the combination groups (amonafide (60 mg/kg), caffeine (75 mg/kg), nicotinamide (1000 mg/kg). Sequential groups included one group treated with amonafide followed by treatment with caffeine, one group treated with caffeine followed by treatment with amonafide, one group treated with amonafide followed by treatment with nicotinamide, and one group treated with nicotinamide followed by treatment with amonafide.\nFour mice were used in each treatment group.\nTumors were measured 3 times a week using Vernier calipers, and tumor volume (V) was calculated according to the formula: [formula]\nWhere D1-3 are perpendicular diameters measured in millimeters (mm).\nTumor volume quadrupling time was defined as the time (days) for treated and untreated tumors to grow to four times (4×) their initial treatment volume. Tumor growth delay ratio (T/C) was defined as the ratio of 4× growth times of treated (T) and untreated control (C) tumors."}}}
{"molecule": "CN(C)CCN1C(=O)c2cccc3cc(N)cc(c23)C1=O", "note": "[Amonafide, 5-amino-2-[(dimethylamine)ethyl]-1H-benz[de-]isoquinoline-1,3-(2H)-dione]", "values": [{"measurement": "Solubility in water compared to monohydrochloride salt", "setting": "Solubility", "value": "more soluble in water"}, {"measurement": "Solubility in saline", "setting": "Solubility; at therapeutic concentrations", "value": "soluble in saline at therapeutic concentrations"}, {"measurement": "Median (days to 4×)", "setting": "RIF-1 tumors", "value": 7.5}, {"measurement": "T/C (tumor growth delay ratio)", "setting": "RIF-1 tumors", "value": 1.6}, {"measurement": "Delay (tumor growth delay)", "setting": "RIF-1 tumors", "value": 2.97}]}
{"molecule": "Cn1c(=O)c2c(ncn2C)n(C)c1=O", "note": "[Caffeine, caffeine]", "values": [{"measurement": "Median (days to 4×)", "setting": "RIF-1 tumors", "value": 5.5}, {"measurement": "T/C (tumor growth delay ratio)", "setting": "RIF-1 tumors", "value": 1.2}, {"measurement": "Delay (tumor growth delay)", "setting": "RIF-1 tumors", "value": 1.01}]}
{"molecule": "NC(=O)c1cccnc1", "note": "[Nicotinamide, nicotinamide]", "values": [{"measurement": "Median (days to 4×)", "setting": "RIF-1 tumors", "value": 5.3}, {"measurement": "T/C (tumor growth delay ratio)", "setting": "RIF-1 tumors", "value": 1.1}, {"measurement": "Delay (tumor growth delay)", "setting": "RIF-1 tumors", "value": 0.76}]}
